Tested on: CHO-K1 cell strain
Assay: Changes in intracellular Ca2+ concentration in CHO-K1 host cell not transfected (negative control)
Assay type: cell-based, Chinese hamster
Experimental: The specific method for measuring changes in the intracellular Ca^2+ concentration in the HA-ph01207#10-6 cell strain induced by CCK-8S (SEQ ID NO: 14) and the results are described below. The HA-ph01207#10-6 cell strain was seeded on a 96-well plate (a plate with a black wall and a transparent bottom) at a cell count of 2×10^4/100 μL medium/well and cultured at 37° C. in the presence of 5% CO2. As a medium, DMEM/F12 (Gibco) containing 10% fetal calf serum (Moregate) was used. On the following day, 50 μL of the medium was removed from each well, 50 μL of a loading buffer was added to each well, and the mixture was reacted at room temperature for 1.5 h, so that a fluorescent dye contained in the loading buffer should be taken up into the cell. The loading buffer was prepared by dissolving component A of the FLIPR Calcium 3 Assay Kit (Molecular Device) in a solution obtained by adding 0.1 mL of 500 mM probenecid (Sigma) to 9.9 mL of component B. After reaction, changes over time in the fluorescence intensity in each well after addition of CCK-8S (Peptide Institute, Inc.) were measured using the FLEX station (Molecular Device). Furthermore, similar measurement was performed for CCK-8NS (Peptide Institute, Inc.) and CCK-4 (Peptide Institute, Inc.). 0.52 mg of CCK-8S (SEQ ID NO: 14) was dissolved in 4.5 mL of 1% NaHCO3 (Wako) to prepare a solution having 0.1 mM concentration. 0.53 mg of CCK-8NS was dissolved in 0.50 mL of dimethyl sulfoxide (DMSO, Sigma), and then 4.50 mL of redistilled water H2O was added to prepare a solution having 0.1 mM concentration. 0.54 mg of CCK-4 was dissolved in 0.46 mL of DMSO, 4.09 mL of redistilled water was added to prepare a solution having 0.2 mM concentration. CCK-8S (SEQ ID NO: 14), CCK-8NS, and CCK-4 were diluted in phosphate-buffered physiological saline (PBS) to prepare 5 nM solutions, and 25 μL each was added (final concentration 1 nM) to perform measurement. As a positive control for including an increase in the intracellular Ca^2+ concentration, A23187 (Calbiochem) was used at a final concentration of 10 μM. As a negative control, the CHO-K1 cell strain used to prepare the HA-ph01207#10-6 cell strain as a host was used. Since the CHO-K1 cell strain was not transfected with the ph01207-expressing vector, the ph01207 gene product was not expressed.
Changes in the intracellular calcium (Ca^2+) concentration induced by CCK-8S were measured by a method similar to the method described in Example 5 using the 7tmHR stably-expressing strain and the hk01941 stably-expressing strain prepared in Example 7. As a control, a host cell not transfected with the 7tmHR-expressing vector or the hk01941-expressing vector was also used.
Cells were seeded in a 96-well plate (a plate with a black wall and a transparent bottom) at a cell count of 3×10^4/100 μL of medium/well and cultured overnight at 37° C. in a 5% CO2 incubator. On the following day, 50 μL of the medium was removed from each well, […] of a loading buffer was added to each well, and the mixture was reacted at room temperature for 1 h, so that a fluorescent dye contained in the loading buffer was taken up into the cell. The loading buffer was prepared by a method similar to the method described in Example 5. After reaction, changes over time in the fluorescence intensity in each well after addition of CCK-8S were measured using the FLEX station (Molecular Device). CCK-8S was used at a final concentration of 10 pM to 1 μM. Furthermore, as a positive control of the assay, A23187 was used at a final concentration of 20 μM.
Cells were seeded in a 96-well plate (a plate with a black wall and a transparent bottom) at a cell count of 3×10^4/100 μL of medium/well and cultured overnight at 37° C. in a 5% CO2 incubator. […]

CNc1ccc2oc(C[C@H]3O[C@@]4(CC[C@H]3C)O[C@H]([C@H](C)C(=O)c3ccc[nH]3)[C@H](C)C[C@H]4C)nc2c1C(=O)O [A23187]
Change in intracellular Ca2+ concentration (fluorescence intensity) (CHO-K1 not transfected, A23187 10 μM (Example 5)): increased
Change in intracellular Ca2+ concentration (fluorescence intensity) (host cell CHO-K1 not transfected, A23187 20 μM (Examples 8, 9)): increased

cholecystokinin octapeptide sulfated form [CCK-8S]
Change in intracellular Ca2+ concentration (fluorescence intensity) (CHO-K1 not transfected, peptide 1 nM (Example 5)): not increased
Change in intracellular calcium concentration after addition of CCK-8S (host cell not transfected with the expressing vector (Examples 8, 9)): no change

— patent US20100029702A1, “Method For Identification of Compound Having Anti-Anxiety Effect” (priority 2006, published 2010)
